Reference: patent US6518253B1, “Treatment of viral infections using the L-isomer of ribavirin” (priority 1999, dated 2003)
Like-named read-outs stand apart in the source and are kept apart here.

Experiments:
Influenza (INFL) B = experiment: microbe, parasite or virus in culture; type: cell-based; details: read-out: Dir.Antiviral activity (EC50) INFL.B
Hepatitis B (HBV) = type: cell-based; details: read-out: Dir.Antiviral activity (EC50) HBV
Parainfluenza (PARA) 3 = type: cell-based, Parainfluenza 3; details: read-out: Dir.Antiviral activity (EC50) PARA 3
cells infected with HIV = details: cells of the HIV test; Ribavirin value from previous data (McCormick, Lancet); read-out: Cytotoxicity (CC50) HIV; cited from earlier work
[1] = tested on: Concanavalin A Induced Hepatitis; experiment: Concanavalin A induced hepatitis, serum ALT; details: BALB/c mice, single i.p. dose 20 μg (1 mg/kg) 1 hr prior to i.v. 0.3 mg Con A; serum after 24 hr; PBS control about 1900 U/ml
[2] = Four-week oral toxicity in rats; details: oral administration, 180 mg/kg over four weeks
Parainfluenza (PARA) 1 = type: cell-based, Parainfluenza 1; details: read-out: Dir.Antiviral activity (EC50) PARA 1
[3] = tested on: respiratory syncytial virus (RSV); type: cell-based; details: read-out: Dir.Antiviral activity (EC50) RSV
[4] = tested on: cells infected with Influenza B; experiment: Cytotoxicity assay, influenza B test; type: cell-based; details: cells of the Influenza B test; read-out: Cytotoxicity (CC50) INFL.B
Experimental: (§1) In vitro testing for direct antiviral activity of Levovirin™ and Ribavirin against influenza A and B, parainfluenza 1 and 2, and respiratory syncytial virus were performed as described in Huffinan, J. H. et al. Antiviral Chem. and Chemother. 1997, 8: 75-83 and Barnard, D. L. et al. Antiviral Chem. and Chemother 1997, 8: 223-233. Anti-human immunodeficiency virus activity was assessed by the National Cancer Institute using a procedure designed to detect agents acting at any stage of the virus reproductive cycle [Weislow, O. W. et al., J. Natl. Cancer Inst. 1989, 81: 577-586]. Anti-hepatitis B (HBV) activity was monitored by using an assay as described by Marion et al., Hepatology 1987, 7: 724-731. Anti-HIV activity and cytotoxicity for Ribavirin was determined from previous data [McCormick, J. B., Lancet, 1998, II: 1367-1369.

[5] = tested on: cells infected with Parainfluenza 3
[6] = tested on: cells infected with Parainfluenza 1
[7] = tested on: SEB stimulated T cell expression of the TH1 cytokines IL-2, IFN-γ, and TNF-α; type: cell-based, human
Influenza (INFL) A = type: cell-based; details: read-out: Dir.Antiviral activity (EC50) INFL.A
[8] = tested on: cells infected with Influenza A; experiment: Cytotoxicity assay, influenza A test; type: cell-based; details: cells of the Influenza A test; read-out: Cytotoxicity (CC50) INFL.A
Experimental: as §1

[9] = rat, in vivo, po, 180 mg/kg
[10] = Cytotoxicity assay, influenza B test; type: cell-based; details: cells infected with Influenza B (cell line not given); cells of the Influenza B test; read-out: Cytotoxicity (CC50) INFL.B
Experimental: as §1

[11] = Cytotoxicity assay, influenza A test; type: cell-based; details: cells infected with Influenza A (cell line not given); cells of the Influenza A test; read-out: Cytotoxicity (CC50) INFL.A
Experimental: as §1

1-(5-Deoxy-β-D-ribo-furanosyl)-1,2,4-triazole-3-carboxamide [Ribavirin]
EC50 (Influenza (INFL) B; Influenza B): 1.9 µM | EC50 (Hepatitis B (HBV)): > 100 µM | CC50 (cells infected with RSV): 100 µM | EC50 (Parainfluenza (PARA) 3): 4 µM | CC50 (cells infected with HIV): > 40 µM | Con A induced serum ALT level [1]: 969 U/ml | Clinical pathology (hemolytic anemia, leukopenia) [2]: produced significant hemolytic anemia and leukopenia | EC50 (Parainfluenza (PARA) 1): 40 µM | EC50 [3]: 5 µM | CC50 [4]: > 100 µM | CC50 [5]: 480 µM | CC50 [6]: > 1000 µM | IFN-γ, mean percentage of activated control [7]: 131 ± 6 percentage of activated control | IL-2, mean percentage of activated control [7]: 143 ± 18 percentage of activated control | TNF-α, mean percentage of activated control [7]: 124 ± 4 percentage of activated control | EC50 (Influenza (INFL) A): 6.1 µM | CC50 [8]: 56 µM | CC50 (cells infected with HBV): 53 µM

NC(=O)c1ncn([C@H]2O[C@@H](CO)[C@H](O)[C@@H]2O)n1 [Levovirin™, 1-(β-L-ribofuranosyl)-1,2,4-triazole-3-carboxamide]
EC50 (Influenza (INFL) B; Influenza B virus): > 200 µM | Clinical pathology (hemolytic anemia, leukopenia) [9]: did not produce any observable clinical pathology | Con A induced serum ALT level [1]: 954 U/ml | CC50 [10]: > 200 µM | IFN-γ, mean percentage of activated control [7]: 122 ± 3 percentage of activated control | IL-2, mean percentage of activated control [7]: 131 ± 12 percentage of activated control | TNF-α, mean percentage of activated control [7]: 144 ± 7 percentage of activated control | CC50 [11]: > 200 µM
